From the NIST ThermoML archive (doi:10.1021/je049789+)
Numbers after ± are expanded uncertainties.

Settings: Liquid, Closed cell (Static) method

| vapor or sublimation pressure (258.15 K) | vapor or sublimation pressure (273.15 K) | vapor or sublimation pressure (293.15 K) | SMILES |
| --- | --- | --- | --- |
| 488.1 ± 2.6 kPa | 814 ± 3.3 kPa | 1474.6 ± 4.8 kPa | FCF [difluoromethane] |
| 152.9 ± 2.1 kPa | 266.8 ± 2.2 kPa | 509.3 ± 2.7 kPa | COC [dimethyl ether] |
